From US20240207374A1, “LIPID NANOPARTICLES CONTAINING POLYNUCLEOTIDES ENCODING GLUCOSE-6-PHOSPHATASE AND USES THEREOF” (ModernaTX, Inc., priority 2021, published 2024)

Experiment: Residual parent lipid levels in the liver of mice (hEPO mRNA LNP)
Type: in vivo
Details: CD-1 mice
With `CCCCCCCCC(CCCCCCCC)OC(=O)CCCCCCCN(CCO)CCCCCCCC(=O)OCCCC(CCCCC)CCCCC` [Compound 31] the “Parent Lipid Remaining at 24 h” value was 2 ± 0.6 nmol/g liver tissue.
In the case of `CCCCCCCCC(CCCCCCCC)OC(=O)CCCCCCCN(CCCCCCCC(=O)OCC(CCCCC)CCCCCCC)CCCNc1c(NC)c(=O)c1=O` (stereo not shown) [Compound 16], the “Parent Lipid Remaining at 24 h” value is reported as 77 ± 3 nmol/g liver tissue.
In the case of `CCCCCC(CCCCC)CCOC(=O)CCCCCCCN(CCO)CCCCCCCC(=O)OCCC(CCCCC)CCCCC` [Compound 25], the “Parent Lipid Remaining at 24 h” value is reported as 0.1 ± 0.04 nmol/g liver tissue.
With `CCCCCCC(CCCCCC)CCOC(=O)CCCCCCCN(CCO)CCCCCCCC(=O)OCCC(CCCCCC)CCCCCC` [Compound 23] the “Parent Lipid Remaining at 24 h” value was 24 ± 3 nmol/g liver tissue.
For `CCCCCCC(CCCCCC)OC(=O)CCCCCCCN(CCCCCCCC(=O)OCCC(CCC)CCC)CCCNc1c(NC)c(=O)c1=O` [Compound 64], the “Parent Lipid Remaining at 24 h” value was 4.9 ± 0.9 nmol/g liver tissue.
For `CCCCCCCCC(CCCCCCCC)OC(=O)CCCCCCCN(CCCCCCCC(=O)OCC(CCCCCCC)C(C)C)CCCNc1c(NC)c(=O)c1=O` (stereo not shown) [Compound 19], the “Parent Lipid Remaining at 24 h” value was 73 ± 6 nmol/g liver tissue.
For `CCCCCCCCC(CCCCCCCC)OC(=O)CCCCCCCN(CCO)CCCCCCCC(=O)OCCC(CCCCC)CCCCC` [Compound 24], the “Parent Lipid Remaining at 24 h” value was 3 ± 1 nmol/g liver tissue.
With `CCCCCCCC(CCCCCCC)OC(=O)CCCCCCCN(CCCCCCCC(=O)OCCC(CCC)CCC)CCCNc1c(NC)c(=O)c1=O` [Compound 63] the “Parent Lipid Remaining at 24 h” value was 8.9 ± 2.8 nmol/g liver tissue.
In the case of `CCCCCC(CCCCC)CCOC(=O)CCCCCCCN(CCCCCCCC(=O)OC(CCCCC)CCCCC)CCCNc1c(NC)c(=O)c1=O` [Compound 57], the “Parent Lipid Remaining at 24 h” value is reported as 12 ± 1 nmol/g liver tissue.
For `CCCCCC(CCCCC)OC(=O)CCCCCCCN(CCCCCCCC(=O)OCCC(CCC)CCC)CCCNc1c(NC)c(=O)c1=O` [Compound 65], the “Parent Lipid Remaining at 24 h” value was 0.9 ± 0.3 nmol/g liver tissue.
With `CCCCCC(CCCCC)CCOC(=O)CCCCCCCN(CCCCCCCC(=O)OCCC(CCC)CCC)CCCNc1c(NC)c(=O)c1=O` [Compound 51] the “Parent Lipid Remaining at 24 h” value was 4 ± 0.6 nmol/g liver tissue.
For `CCCCCC(CCCCC)CCOC(=O)CCCCCCCN(CCCCCCCC(=O)OCCC(CCCCC)CCCCC)CCCNc1c(NC)c(=O)c1=O` [Compound 30, Bis(3-pentyloctyl) 8,8′-((3-((2-(methylamino)-3,4-dioxocyclobut-1-en-1-yl)amino)propyl)azanediyl)dioctanoate], the “Parent Lipid Remaining at 24 h” value was 25 ± 4 nmol/g liver tissue.
In the case of `CCCCC(CCCC)OC(=O)CCCCCCCN(CCCCCCCC(=O)OCCC(CCC)CCC)CCCNc1c(NC)c(=O)c1=O` [Compound 66], the “Parent Lipid Remaining at 24 h” value is reported as 0.1 ± 0.03 nmol/g liver tissue.
In the case of `CCCCCC(CCCCC)CCCOC(=O)CCCCCCCN(CCO)CCCCCCCC(=O)OCCCC(CCCCC)CCCCC` [Compound 33], the “Parent Lipid Remaining at 24 h” value is reported as 0.5 ± 0.3 nmol/g liver tissue.
With `CCCCCCCCC(CCCCCCCC)OC(=O)CCCCCCCN(CCCCCCCC(=O)OCCC(CCCC)CCCC)CCCNc1c(NC)c(=O)c1=O` [Compound 27, 3-Butylheptyl 8-((8-(heptadecan-9-yloxy)-8-oxooctyl)(3-((2-(methylamino)-3,4-dioxocyclobut-1-en-1-yl)amino)propyl)amino)octanoate] the “Parent Lipid Remaining at 24 h” value was 27 ± 4 nmol/g liver tissue.
In the case of `CCCCCCCCC(CCCCCCCC)OC(=O)CCCCCCCN(CCCCCCCC(=O)OCCC(CCCCC)CCCCC)CCCNc1c(NC)c(=O)c1=O` [Compound 29], the “Parent Lipid Remaining at 24 h” value is reported as 66 ± 16 nmol/g liver tissue.
With `CCCCCCCCC(CCCCCCCC)OC(=O)CCCCCCCN(CCCCCCCC(=O)OCCC(CCCCCC)C(C)C)CCCNc1c(NC)c(=O)c1=O` (stereo not shown) [Compound 17] the “Parent Lipid Remaining at 24 h” value was 35 ± 5 nmol/g liver tissue.
For `CCCCCC(CCCCC)CCOC(=O)CCCCCCCN(CCCCCCCC(=O)OC(CCCC)CCCC)CCCNc1c(NC)c(=O)c1=O` [Compound 58], the “Parent Lipid Remaining at 24 h” value was 15 ± 2 nmol/g liver tissue.
In the case of `CCCCCC(CCCCC)CCOC(=O)CCCCCCCN(CCCCCCCC(=O)OCCC(CCCC)CCCC)CCCNc1c(NC)c(=O)c1=O` [Compound 54, 3-Butylheptyl 8-((3-((2-(methylamino)-3,4-dioxocyclobut-1-en-1-yl)amino)propyl)(8-oxo-8-((3-pentyloctyl)oxy)octyl)amino)octanoate], the “Parent Lipid Remaining at 24 h” value is reported as 12 ± 1 nmol/g liver tissue.
With `CCCCC(CCCC)CCOC(=O)CCCCCCCN(CCCCCCCC(=O)OCCC(CCC)CCC)CCCNc1c(NC)c(=O)c1=O` [Compound 52] the “Parent Lipid Remaining at 24 h” value was under 1 nmol/g liver tissue.
In the case of `CCCCCCCCC(CCCCCCCC)OC(=O)CCCCCCCN(CCCCCCCC(=O)OCCC(CCCCCC)CCCCCC)CCCNc1c(NC)c(=O)c1=O` [Compound 26], the “Parent Lipid Remaining at 24 h” value is reported as 141 ± 15 nmol/g liver tissue.
For `CCCCCCC(CCCCCC)CCOC(=O)CCCCCCCN(CCCCCCCC(=O)OCCC(CCCCCC)CCCCCC)CCCNc1c(NC)c(=O)c1=O` [Compound 28], the “Parent Lipid Remaining at 24 h” value was 58 ± 7 nmol/g liver tissue.
For `CCCCCCCCC(CCCCCCCC)OC(=O)CCCCCCCN(CCCCCCCC(=O)OCCC1CCC(CC)C1)CCCNc1c(NC)c(=O)c1=O` (stereo not shown) [Compound 40], the “Parent Lipid Remaining at 24 h” value was 3 ± 0.3 nmol/g liver tissue.
With `CCCCCC(CCCCC)OC(=O)CCCCCCCN(CCCCCCCC(=O)OCCC(CCCC)CCCC)CCCNc1c(NC)c(=O)c1=O` [Compound 61] the “Parent Lipid Remaining at 24 h” value was 5.1 ± 0.8 nmol/g liver tissue.
In the case of `CCCCCCCCC(CCCCCCCC)OC(=O)CCCCCCCN(CCO)CCCCCCCC(=O)OCCC(CCCC)CCCC` [Compound 22, 3-Butylheptyl 8-((8-(heptadecan-9-yloxy)-8-oxooctyl)(2-hydroxyethyl)amino)octanoate], the “Parent Lipid Remaining at 24 h” value is reported as under 0.1 nmol/g liver tissue.
For `CCCCCC(CCCCC)CCCOC(=O)CCCCCCCN(CCCCCCCC(=O)OCCCC(CCCCC)CCCCC)CCCNc1c(NC)c(=O)c1=O` [Compound 34], the “Parent Lipid Remaining at 24 h” value was 12 ± 2 nmol/g liver tissue.
With `CCCC(CCC)CCOC(=O)CCCCCCCN(CCCCCCCC(=O)OCCC(CCC)CCC)CCCNc1c(NC)c(=O)c1=O` [Compound 53] the “Parent Lipid Remaining at 24 h” value was under 1 nmol/g liver tissue.
With `CCCCCCCCC(CCCCCCCC)OC(=O)CCCCCCCN(CCCCCCCC(=O)OCCC1CCC(CCC)CC1)CCCNc1c(NC)c(=O)c1=O` (stereo not shown) [Compound 39] the “Parent Lipid Remaining at 24 h” value was 4 ± 1 nmol/g liver tissue.
In the case of `CCCCCCCCC(CCCCCCCC)OC(=O)CCCCCCCN(CCCCCCCC(=O)OCCC(CCCC)CCCCCC)CCCNc1c(NC)c(=O)c1=O` (stereo not shown) [Compound 20], the “Parent Lipid Remaining at 24 h” value is reported as 65 ± 5 nmol/g liver tissue.
In the case of `CCCCCCCCC(CCCCCCCC)OC(=O)CCCCCCCN(CCO)CCCCCCCC(=O)OCCC(CCCC)CCCCCC` (stereo not shown) [Compound 7], the “Parent Lipid Remaining at 24 h” value is reported as 0.3 ± 0.2 nmol/g liver tissue.
For `CCCCCCCCC(CCCCCCCC)OC(=O)CCCCCCCN(CCO)CCCCCCCC(=O)OCCC1CCC(CC)CC1` (stereo not shown) [Compound 35], the “Parent Lipid Remaining at 24 h” value was under 0.1 nmol/g liver tissue.
In the case of `CCCCCCCCC(CCCCCC)COC(=O)CCCCCN(CCCCCCCC(=O)OC(CC)CCCCCCCC)CCCNc1c(NC)c(=O)c1=O` (stereo not shown) [Compound 15], the “Parent Lipid Remaining at 24 h” value is reported as 51 ± 4 nmol/g liver tissue.
With `CCCCC(CCCC)CCOC(=O)CCCCCCCN(CCCCCCCC(=O)OC(CCCC)CCCC)CCCNc1c(NC)c(=O)c1=O` [Compound 62] the “Parent Lipid Remaining at 24 h” value was 1.8 ± 0.6 nmol/g liver tissue.
With `CCCCCCC(CCCCCC)OC(=O)CCCCCCCN(CCCCCCCC(=O)OCCC(CCCC)CCCC)CCCNc1c(NC)c(=O)c1=O` [Compound 60] the “Parent Lipid Remaining at 24 h” value was 8.5 ± 0.6 nmol/g liver tissue.
In the case of `CCCCCCCCC(CCCCCCCC)OC(=O)CCCCCCCN(CCCCCCCC(=O)OCCCC(CCCCC)CCCCC)CCCNc1c(NC)c(=O)c1=O` [Compound 32], the “Parent Lipid Remaining at 24 h” value is reported as 69 ± 17 nmol/g liver tissue.
In the case of `CCCCCCCCC(CCCCCCCC)COC(=O)CCCCCN(CCCCCCCC(=O)OC(CC)CCCCCCCC)CCCNc1c(NC)c(=O)c1=O` (stereo not shown) [Compound 14], the “Parent Lipid Remaining at 24 h” value is reported as 56 ± 6 nmol/g liver tissue.
In the case of `CCCCCCCCC(CCCCCCCC)OC(=O)CCCCCCCN(CCO)CCCCCCCC(=O)OCCC1CCC(CC)C1` (stereo not shown) [Compound 37], the “Parent Lipid Remaining at 24 h” value is reported as under 0.1 nmol/g liver tissue.
